Reference: patent publication US10654833B2, “ASK1 isoindolin-1-one inhibitors and methods of use thereof” (Hepatikos Therapeutics, LLC, priority 2018, dated 2020)

What follows are compounds tested against recombinant human ASK1 protein (Homo sapiens (Human), UniProt Q99683) (assay: ASK1 kinase activity inhibition assay (radiometric 33P incorporation into MBP)). Settings: Table 3; 20 μM MBP, 10 μM 33P-ATP.
Chain of recombinant human ASK1 protein (Q99683 whole entry): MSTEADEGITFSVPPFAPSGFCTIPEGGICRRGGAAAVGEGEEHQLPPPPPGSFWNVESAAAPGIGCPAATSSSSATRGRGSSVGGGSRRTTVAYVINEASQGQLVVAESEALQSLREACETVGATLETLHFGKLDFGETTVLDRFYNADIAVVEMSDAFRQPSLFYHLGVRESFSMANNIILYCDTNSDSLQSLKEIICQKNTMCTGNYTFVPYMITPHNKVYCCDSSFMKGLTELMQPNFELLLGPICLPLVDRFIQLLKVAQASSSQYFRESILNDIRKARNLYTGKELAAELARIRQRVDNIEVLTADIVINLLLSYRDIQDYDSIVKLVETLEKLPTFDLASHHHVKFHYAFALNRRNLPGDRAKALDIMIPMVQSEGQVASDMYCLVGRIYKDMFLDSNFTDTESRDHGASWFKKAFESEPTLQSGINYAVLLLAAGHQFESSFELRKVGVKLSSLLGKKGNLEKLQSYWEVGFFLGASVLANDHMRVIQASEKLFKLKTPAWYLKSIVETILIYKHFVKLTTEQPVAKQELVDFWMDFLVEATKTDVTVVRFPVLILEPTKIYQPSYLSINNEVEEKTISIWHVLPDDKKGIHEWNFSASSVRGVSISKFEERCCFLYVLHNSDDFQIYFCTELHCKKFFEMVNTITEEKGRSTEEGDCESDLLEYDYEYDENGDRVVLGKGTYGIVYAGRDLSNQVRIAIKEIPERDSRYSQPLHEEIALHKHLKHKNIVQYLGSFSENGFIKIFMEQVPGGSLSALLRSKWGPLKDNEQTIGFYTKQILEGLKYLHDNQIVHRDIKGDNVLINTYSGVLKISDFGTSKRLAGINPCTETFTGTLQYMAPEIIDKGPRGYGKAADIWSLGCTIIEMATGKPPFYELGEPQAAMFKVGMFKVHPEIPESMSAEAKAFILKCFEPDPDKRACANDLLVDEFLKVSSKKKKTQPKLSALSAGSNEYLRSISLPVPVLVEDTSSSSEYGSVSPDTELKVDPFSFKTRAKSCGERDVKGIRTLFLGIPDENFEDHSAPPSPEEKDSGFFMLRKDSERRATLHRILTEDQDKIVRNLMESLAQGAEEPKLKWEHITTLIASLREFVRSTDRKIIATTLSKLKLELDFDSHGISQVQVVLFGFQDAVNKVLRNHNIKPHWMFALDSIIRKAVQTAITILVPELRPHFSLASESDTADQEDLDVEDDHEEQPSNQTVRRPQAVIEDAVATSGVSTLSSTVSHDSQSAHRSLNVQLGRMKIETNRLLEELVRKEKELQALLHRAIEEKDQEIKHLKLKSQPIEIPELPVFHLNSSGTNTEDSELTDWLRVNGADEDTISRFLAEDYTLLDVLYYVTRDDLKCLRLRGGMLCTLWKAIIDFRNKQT
Type: biochemical
Protocol: ASK1 Kinase Activity Inhibition Assay
Inhibition of ASK1 kinase activity was determined radiometrically using 33P substrate incorporation (Reaction Biology Corp., Malvern, Pa.). Briefly, recombinant human ASK1 protein, 20 μM substrate (myelin basic protein (MBP)), and compound (diluted from DMSO stock to give 1% final DMSO) were incubated in Base Reaction buffer (20 mM Hepes (pH 7.5), 10 mM MgCl2, 1 mM EGTA, 0.02% Brij35, 0.02 mg/mL BSA, 0.1 mM Na3VO4, 2 mM DTT, 1% DMSO) at room temperature for 20 minutes. The reaction was initiated by addition of 10 μM 33P-ATP (specific activity […]). The reaction was then allowed to proceed for 2 hours at room temperature. Upon reaction termination, the mixture was spotted on P81 exchange paper and kinase activity by incorporation of 33P into MBP substrate was detected by filter-binding method.
For `O=C1c2cc(-c3cccc(-c4nn[nH]n4)c3)ccc2CN1c1cccc(-c2nncn2C2CC2)n1` [Compound 110, 6-(3-(2H-Tetrazol-5-yl)phenyl)-2-(6-(4-cyclopropyl-4H-1,2,4-triazol-3-yl)pyridin-2-yl)isoindolin-1-one], the IC50 was 5.44 nM. In the case of `CC(C)n1cnnc1-c1cccc(N2Cc3ccc(N4CCCC(C(=O)O)C4)cc3C2=O)n1` (centres unmarked) [Compound 28, 1-(2-(6-(4-Isopropyl-4H-1,2,4-triazol-3-yl)pyridin-2-yl)-3-oxoisoindolin-5-yl)piperidine-3-carboxylic Acid], the IC50 is reported as 11.2 nM. `CC(C)n1cnnc1-c1cccc(N2Cc3ccc(-c4ncc5ccc(C(=O)O)cc5n4)cc3C2=O)n1` [Compound 125, 2-(2-(6-(4-Isopropyl-4H-1,2,4-triazol-3-yl)pyridin-2-yl)-3-oxoisoindolin-5-yl)quinazoline-7-carboxylic Acid] was tested, and the IC50 was 7 nM. `O=C(O)CC1CCN(c2ccc3c(c2)C(=O)N(c2cccc(-c4nncn4C4CC4)n2)C3)CC1` [Compound 130, 2-(1-(2-(6-(4-Cyclopropyl-4H-1,2,4-triazol-3-yl)pyridin-2-yl)-3-oxoisoindolin-5-yl)piperidin-4-yl)acetic Acid] showed an IC50 of 19.2 nM. With `CC(C)n1cnnc1-c1cccc(N2Cc3ccc(-c4c(F)cccc4C(=O)O)cc3C2=O)n1` [Compound 70, 3-Fluoro-2-(2-(6-(4-isopropyl-4H-1,2,4-triazol-3-yl)pyridin-2-yl)-3-oxoisoindolin-5-yl)benzoic Acid] the IC50 was 160 nM. With `CC(C)n1cnnc1-c1cccc(N2Cc3ccc(-c4cc(F)c(C(=O)O)c(F)c4)cc3C2=O)n1` [Compound 78, 2,6-Difluoro-4-(2-(6-(4-isopropyl-4H-1,2,4-triazol-3-yl)pyridin-2-yl)-3-oxoisoindolin-5-yl) Benzoic Acid] the IC50 was 4.6 nM. `CC(C)n1cnnc1-c1cccc(N2Cc3ccc(-c4cccc(CCC(=O)O)c4)cc3C2=O)n1` [Compound 107, 3-(3-(2-(6-(4-Isopropyl-4H-1,2,4-triazol-3-yl)pyridin-2-yl)-3-oxoisoindolin-5-yl)phenyl) Propanoic Acid] gave an IC50 of 5.2 nM. For `COc1c(C)cc(-c2ccc3c(c2)C(=O)N(c2cccc(-c4nncn4C(C)C)n2)C3)cc1C(=O)O` [Compound 80, 5-(2-(6-(4-Isopropyl-4H-1,2,4-triazol-3-yl)pyridin-2-yl)-3-oxoisoindolin-5-yl)-2-methoxy-3-methylbenzoic Acid], the IC50 was 5.2 nM. `Cc1cc(-c2ccc3c(c2)C(=O)N(c2cccc(-c4nncn4C(C)C)n2)C3)ccc1C(=O)O` [Compound 73, 4-(2-(6-(4-isopropyl-4H-1,2,4-triazol-3-yl)pyridin-2-yl)-3-oxoisoindolin-5-yl)-2-methyl] gave an IC50 of 14.3 nM. Compound `O=C1c2cc(-c3ccc(C4(C(=O)O)CC4)cc3)ccc2CN1c1cccc(-c2nncn2C2CC2)n1` [Compound 87, 1-(4-(2-(6-(4-Cyclopropyl-4H-1,2,4-triazol-3-yl)pyridin-2-yl)-3-oxoisoindolin-5-yl)phenyl)cyclopropane-1-carboxylic Acid] has an IC50 of 2.5 nM. `CC(C)n1cnnc1-c1cccc(N2Cc3ccc(-c4cc(C#N)cc(C(=O)O)c4)cc3C2=O)n1` [Compound 13, 3-Cyano-5-(2-(6-(4-isopropyl-4H-1,2,4-triazol-3-yl)pyridin-2-yl)-3-oxoisoindolin-5-yl) benzoic Acid] showed an IC50 of 1.6 nM. With `CC(C)n1cnnc1-c1cccc(N2Cc3ccc(-c4cnc(N)c(C(=O)O)c4)cc3C2=O)n1` [Compound 117, 2-Amino-5-(2-(6-(4-isopropyl-4H-1,2,4-triazol-3-yl)pyridin-2-yl)-3-oxoisoindolin-5-yl) Nicotinic Acid] the IC50 was 1.9 nM. For `COC(=O)c1ccc(-c2ccc3c(c2)C(=O)N(c2cccc(-c4nncn4C(C)C)n2)C3)cc1` [Compound 81, Methyl 4-(2-(6-(4-isopropyl-4H-1,2,4-triazol-3-yl)pyridin-2-yl)-3-oxoisoindolin-5-yl)benzoate], the IC50 was 14.9 nM. `CC(C)n1cnnc1-c1cccc(N2Cc3ccc(-c4ccc5c(C(=O)O)cnn5c4)cc3C2=O)n1` [Compound 122, 6-(2-(6-(4-Isopropyl-4H-1,2,4-triazol-3-yl)pyridin-2-yl)-3-oxoisoindolin-5-yl)pyrazolo[1,5-a]pyridine-3-carboxylic Acid] was tested, and the IC50 was 3.9 nM. `Cc1c(C(=O)O)cc(N)cc1-c1ccc2c(c1)C(=O)N(c1cccc(-c3nncn3C(C)C)n1)C2` [Compound 68, 5-Amino-3-(2-(6-(4-isopropyl-4H-1,2,4-triazol-3-yl)pyridin-2-yl)-3-oxoisoindolin-5-yl)-2-methylbenzoic Acid] was tested, and the IC50 was 12.4 nM. Compound `CC(C)n1cnnc1-c1cccc(N2Cc3ccc(-c4ccc(C(=O)O)c(CO)c4)cc3C2=O)n1` [Compound 83, 2-(Hydroxymethyl)-4-(2-(6-(4-isopropyl-4H-1,2,4-triazol-3-yl)pyridin-2-yl)-3-oxoisoindolin-5-yl)benzoic Acid] has an IC50 of 6.2 nM. For `COc1cc(N)c(-c2ccc3c(c2)C(=O)N(c2cccc(-c4nncn4C(C)C)n2)C3)cc1C(=O)O` [Compound 66, 4-Amino-5-(2-(6-(4-isopropyl-4H-1,2,4-triazol-3-yl)pyridin-2-yl)-3-oxoisoindolin-5-yl)-2-methoxybenzoic Acid], the IC50 was 8.9 nM. Work on `CC(C)n1cnnc1-c1cccc(N2Cc3ccc(-c4ccc(-c5nnn[nH]5)cc4)cc3C2=O)n1` [Compound 91, 6-(4-(2H-Tetrazol-5-yl)phenyl)-2-(6-(4-isopropyl-4H-1,2,4-triazol-3-yl)pyridin-2-yl)isoindolin-1-one] yielded an IC50 of 7.9 nM. In the case of `CC(C)n1cnnc1-c1cccc(N2Cc3ccc(-c4ccc(C(=O)O)c(F)c4)cc3C2=O)n1` [Compound 67, 2-Fluoro-4-(2-(6-(4-isopropyl-4H-1,2,4-triazol-3-yl)pyridin-2-yl)-3-oxoisoindolin-5-yl)benzoic Acid], the IC50 is reported as 5.4 nM. Work on `COC(=O)c1cccc(-c2ccc3c(c2)C(=O)N(c2cccc(-c4nncn4C(C)C)n2)C3)c1` [Compound 99, Methyl 3-(2-(6-(4-isopropyl-4H-1,2,4-triazol-3-yl)pyridin-2-yl)-3-oxoisoindolin-5-yl)benzoate] yielded an IC50 of 6.37 nM. `Cc1ccc(C(=O)O)cc1-c1ccc2c(c1)C(=O)N(c1cccc(-c3nncn3C(C)C)n1)C2` [Compound 11, 3-(2-(6-(4-Isopropyl-4H-1,2,4-triazol-3-yl)pyridin-2-yl)-3-oxoisoindolin-5-yl)-4-methylbenzoic Acid] was tested, and the IC50 was 5.9 nM. `COc1cc(-c2ccc3c(c2)C(=O)N(c2cccc(-c4nncn4C(C)C)n2)C3)ccc1C(=O)O` [Compound 75, 4-(2-(6-(4-Isopropyl-4H-1,2,4-triazol-3-yl)pyridin-2-yl)-3-oxoisoindolin-5-yl)-2-methoxybenzoic Acid] was tested, and the IC50 was 5.6 nM. Work on `CC(C)n1cnnc1-c1cccc(N2Cc3ccc(-c4cccc(OCC(=O)O)c4)cc3C2=O)n1` [Compound 108, 2-(3-(2-(6-(4-Isopropyl-4H-1,2,4-triazol-3-yl)pyridin-2-yl)-3-oxoisoindolin-5-yl)phenoxy) Acetic Acid] yielded an IC50 of 5.2 nM. In the case of `CC(C)n1cnnc1-c1cccc(N2Cc3ccc(-c4ccc5cc(C(=O)O)[nH]c5c4)cc3C2=O)n1` [Compound 61, 6-(2-(6-(4-Isopropyl-4H-1,2,4-triazol-3-yl)pyridin-2-yl)-3-oxoisoindolin-5-yl)-1H-indole-2-carboxylic Acid], the IC50 is reported as 5.1 nM. For `O=C(O)c1cccc(-c2ccc3c(c2)C(=O)N(c2cccc(-c4nncn4C4CC4)n2)C3)c1` [Compound 20, 3-(2-(6-(4-Cyclopropyl-4H-1,2,4-triazol-3-yl)pyridin-2-yl)-3-oxoisoindolin-5-yl)benzoic Acid], the IC50 was 5.3 nM. `CC(C)n1cnnc1-c1cccc(N2Cc3ccc(-c4ccc(OCC(=O)O)cc4)cc3C2=O)n1` [Compound 89, 2-(4-(2-(6-(4-Isopropyl-4H-1,2,4-triazol-3-yl)pyridin-2-yl)-3-oxoisoindolin-5-yl)phenoxy) acetic Acid] was tested, and the IC50 was 4.9 nM. Work on `CC(C)n1cnnc1-c1cccc(N2Cc3ccc(-c4ccc(Cl)cc4C(=O)O)cc3C2=O)n1` [Compound 65, 5-Chloro-2-(2-(6-(4-isopropyl-4H-1,2,4-triazol-3-yl)pyridin-2-yl)-3-oxoisoindolin-5-yl)benzoic Acid] yielded an IC50 of 34.4 nM. `CC(C)n1cnnc1-c1cccc(N2Cc3ccc(-c4cccc(-c5nn[nH]n5)c4)cc3C2=O)n1` [Compound 37, 6-(3-(2H-Tetrazol-5-yl)phenyl)-2-(6-(4-isopropyl-4H-1,2,4-triazol-3-yl)pyridin-2-yl)isoindolin-1-one] was tested, and the IC50 was 2.8 nM. In the case of `CC(C)n1cnnc1-c1cccc(N2Cc3ccc(-c4ccc(C(C)(C)C(=O)O)cc4F)cc3C2=O)n1` [Compound 41, 2-(3-Fluoro-4-(2-(6-(4-isopropyl-4H-1,2,4-triazol-3-yl)pyridin-2-yl)-3-oxoisoindolin-5-yl)phenyl)-2-methylpropanoic Acid], the IC50 is reported as 4.7 nM. Compound `O=C1c2cc(-c3cccc(C4(C(=O)O)CC4)c3)ccc2CN1c1cccc(-c2nncn2C2CC2)n1` [Compound 106, 1-(3-(2-(6-(4-Cyclopropyl-4H-1,2,4-triazol-3-yl)pyridin-2-yl)-3-oxoisoindolin-5-yl)phenyl)cyclopropane-1-carboxylic Acid] has an IC50 of 8.4 nM. Work on `CC(C)n1cnnc1-c1cccc(N2Cc3ccc(-c4ccc(C(=O)O)cc4)cc3C2=O)n1` [Compound 55, 4-(2-(6-(4-Isopropyl-4H-1,2,4-triazol-3-yl)pyridin-2-yl)-3-oxoisoindolin-5-yl)benzoic Acid] yielded an IC50 of 5.4 nM. `COc1cc(C(=O)O)ccc1-c1ccc2c(c1)C(=O)N(c1cccc(-c3nncn3C(C)C)n1)C2` [Compound 76, 4-(2-(6-(4-Isopropyl-4H-1,2,4-triazol-3-yl)pyridin-2-yl)-3-oxoisoindolin-5-yl)-3-methoxybenzoic Acid] showed an IC50 of 8.2 nM.
